Laboratory results from ChEMBL document CHEMBL1201862, “PubChem BioAssay data set” (2004).
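96-well plates; 48 h exposure; 5 concentrations. Endpoints by linear interpolation between flanking doses. Not reached: highest tested concentration assigned. GI50 = concentration required for 50% inhibition of growth.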 Calls of active or inactive are those of the source. No stated cut-off is given here; in the data, active = GI50 up to about 1.1 µM and inactive = higher.

Columns and labels:
Assay in all cases: inhibition of tumour cell growth, NCI panel, 48 h
HT-29 = system: HT-29
MOLT-4 = system: MOLT-4
SNB-78 = system: SNB-78
CAKI-1 = system: CAKI-1
SK-OV-3 = system: SK-OV-3
NCI-H522 = system: NCI-H522
DMS-114 = system: DMS-114
SNB-75 = system: SNB-75
ACHN = system: ACHN
LXFL 529 = system: LXFL 529
U-251 = system: U-251
HCT-15 = system: HCT-15
SK-MEL-2 = system: SK-MEL-2
HCC 2998 = system: HCC 2998
IGROV-1 = system: IGROV-1
KM-20L2 = system: KM-20L2
Hs-578T = system: Hs-578T
NCI/ADR-RES = system: NCI/ADR-RES
PC-3 = system: PC-3
MDA-MB-435 = system: MDA-MB-435

How did the GI50 (HT-29) turn out when `O=C(O)[C@@H]1CCCC[C@@H]1C(=O)N(C1CCCCC1)C1CCCCC1` was run?
The GI50 was > 100 µM (inactive).

And the GI50 (MOLT-4)?
The GI50 was > 100 µM (inactive).

And the GI50 (SNB-78)?
The GI50 was > 100 µM (inactive).

And the GI50 (CAKI-1)?
The GI50 was > 100 µM (inactive).

What about the GI50 (SK-OV-3) of the same compound?
The GI50 was > 100 µM (inactive).

What about the GI50 (NCI-H522) of the same compound?
The GI50 was > 100 µM (inactive).

What about the GI50 (DMS-114) of the same compound?
Its GI50 is > 100 µM (inactive).

What about the GI50 (SNB-75) of the same compound?
The GI50 was > 100 µM (inactive).

And the GI50 (ACHN)?
The GI50 was > 100 µM (inactive).

And the GI50 (LXFL 529)?
Its GI50 is > 100 µM (inactive).

And the GI50 (U-251)?
Its GI50 is > 100 µM (inactive).

And the GI50 (HCT-15)?
The GI50 was > 100 µM.

And the GI50 (SK-MEL-2)?
The GI50 was > 100 µM (inactive).

What about the GI50 (HCC 2998) of the same compound?
The GI50 was > 100 µM (inactive).

And the GI50 (IGROV-1)?
Its GI50 is > 100 µM (inactive).

What about the GI50 (KM-20L2) of the same compound?
The GI50 was > 100 µM (inactive).

How did the GI50 (HT-29) turn out when `COc1cc(/C=C2/C(=O)N(C(=O)c3ccccc3O)N=C2C)cc(OC)c1OC` was run?
Its GI50 is 34.4 µM (inactive).

What about the GI50 (MOLT-4) of the same compound?
The GI50 was 0.887 µM (active).

What about the GI50 (SNB-78) of the same compound?
Its GI50 is 0.277 µM (active).

What about the GI50 (Hs-578T) of the same compound?
Its GI50 is 0.822 µM (active).

What about the GI50 (NCI/ADR-RES) of the same compound?
The GI50 was 4.29 µM (inactive).

What about the GI50 (SK-OV-3) of the same compound?
Its GI50 is 2.47 µM (inactive).

And the GI50 (NCI-H522)?
Its GI50 is 3.83 µM (inactive).

What about the GI50 (DMS-114) of the same compound?
Its GI50 is 0.682 µM (active).

What about the GI50 (SNB-75) of the same compound?
The GI50 was 1.84 µM (inactive).

What about the GI50 (ACHN) of the same compound?
Its GI50 is 0.92 µM (active).

What about the GI50 (LXFL 529) of the same compound?
Its GI50 is 0.555 µM (active).

And the GI50 (U-251)?
Its GI50 is 1.2 µM (inactive).

What about the GI50 (HCT-15) of the same compound?
Its GI50 is 3.17 µM.

What about the GI50 (PC-3) of the same compound?
The GI50 was 6.93 µM (inactive).

What about the GI50 (SK-MEL-2) of the same compound?
The GI50 was 1.44 µM (inactive).

And the GI50 (HCC 2998)?
The GI50 was 11.6 µM (inactive).

What about the GI50 (IGROV-1) of the same compound?
The GI50 was 0.69 µM (active).

And the GI50 (KM-20L2)?
Its GI50 is 45.7 µM (inactive).

What about the GI50 (MDA-MB-435) of the same compound?
Its GI50 is 0.863 µM (active).

For `NC(=S)N/N=C(/CC(=O)c1ccccc1)C(=O)Nc1ccc(Cl)c(Cl)c1`, which GI50 (HT-29) is on record?
The GI50 was > 100 µM (inactive).

And the GI50 (MOLT-4)?
The GI50 was 32.3 µM (inactive).

And the GI50 (SNB-78)?
Its GI50 is > 100 µM (inactive).

What about the GI50 (CAKI-1) of the same compound?
Its GI50 is 68.5 µM (inactive).

And the GI50 (SK-OV-3)?
Its GI50 is > 100 µM (inactive).

And the GI50 (NCI-H522)?
Its GI50 is 21.6 µM (inactive).

What about the GI50 (DMS-114) of the same compound?
Its GI50 is 71.6 µM (inactive).

What about the GI50 (SNB-75) of the same compound?
The GI50 was > 100 µM (inactive).

What about the GI50 (ACHN) of the same compound?
Its GI50 is 75.2 µM (inactive).

And the GI50 (LXFL 529)?
The GI50 was 83.4 µM (inactive).

And the GI50 (U-251)?
The GI50 was 59 µM (inactive).

What about the GI50 (HCT-15) of the same compound?
Its GI50 is 43.3 µM.

What about the GI50 (SK-MEL-2) of the same compound?
Its GI50 is 78.2 µM (inactive).

What about the GI50 (HCC 2998) of the same compound?
Its GI50 is 93.5 µM (inactive).

What about the GI50 (IGROV-1) of the same compound?
The GI50 was 65.2 µM (inactive).

What about the GI50 (KM-20L2) of the same compound?
Its GI50 is > 100 µM (inactive).

What does the source list for `Cc1oc2c(c1C(=O)c1ccccc1)C(=O)c1ccccc1C2=O`?
GI50 (HT-29): 17.8 µM (inactive); GI50 (MOLT-4): 2.47 µM (inactive); GI50 (SNB-78): > 100 µM (inactive); GI50 (CAKI-1): 4.23 µM (inactive); GI50 (Hs-578T): 4.57 µM (inactive); GI50 (NCI/ADR-RES): 3.52 µM (inactive); GI50 (SK-OV-3): 12.5 µM (inactive); GI50 (NCI-H522): 2.3 µM (inactive); GI50 (DMS-114): 2.45 µM (inactive); GI50 (SNB-75): 6.78 µM (inactive); GI50 (ACHN): 4.65 µM (inactive); GI50 (LXFL 529): 1.62 µM (inactive); GI50 (U-251): 7.24 µM (inactive); GI50 (HCT-15): 4.51 µM; GI50 (PC-3): 6.79 µM (inactive); GI50 (SK-MEL-2): 3.26 µM (inactive); GI50 (HCC 2998): 15.5 µM (inactive); GI50 (IGROV-1): 4.99 µM (inactive); GI50 (KM-20L2): 17.7 µM (inactive); GI50 (MDA-MB-435): 1.58 µM (inactive)

How did the GI50 (HT-29) turn out when `CCCN(CCCC(NC(C)=O)C(=O)NCc1ccccc1)C(=O)NC` (configuration not stated) was run?
The GI50 was > 100 µM (inactive).

What about the GI50 (MOLT-4) of the same compound?
The GI50 was > 100 µM (inactive).

What about the GI50 (SNB-78) of the same compound?
Its GI50 is > 100 µM (inactive).

And the GI50 (CAKI-1)?
Its GI50 is > 100 µM (inactive).

And the GI50 (SK-OV-3)?
Its GI50 is > 100 µM (inactive).

And the GI50 (NCI-H522)?
The GI50 was > 100 µM (inactive).

And the GI50 (DMS-114)?
The GI50 was > 100 µM (inactive).

What about the GI50 (SNB-75) of the same compound?
Its GI50 is 13.7 µM (inactive).

What about the GI50 (ACHN) of the same compound?
The GI50 was > 100 µM (inactive).

And the GI50 (LXFL 529)?
The GI50 was > 100 µM (inactive).

And the GI50 (U-251)?
The GI50 was > 100 µM (inactive).

What about the GI50 (HCT-15) of the same compound?
The GI50 was > 100 µM.

What about the GI50 (SK-MEL-2) of the same compound?
The GI50 was > 100 µM (inactive).

What about the GI50 (HCC 2998) of the same compound?
Its GI50 is > 100 µM (inactive).

And the GI50 (IGROV-1)?
Its GI50 is > 100 µM (inactive).

What about the GI50 (KM-20L2) of the same compound?
Its GI50 is > 100 µM (inactive).
